Reference: publication doi:10.1101/2025.07.11.664310v1 (biorxiv, 2025)

What was measured:
[1] = target: hOGG1 (Homo sapiens, UniProt O15527); experiment: Cas12a-coupled fluorescence assay, 8-oxoG DNA hairpin transducer; assay type: biochemical
[2] = target: T1, Fpg (Escherichia coli, UniProt P05523); experiment: as above; assay type: biochemical
T1 sequence (P05523 2-269): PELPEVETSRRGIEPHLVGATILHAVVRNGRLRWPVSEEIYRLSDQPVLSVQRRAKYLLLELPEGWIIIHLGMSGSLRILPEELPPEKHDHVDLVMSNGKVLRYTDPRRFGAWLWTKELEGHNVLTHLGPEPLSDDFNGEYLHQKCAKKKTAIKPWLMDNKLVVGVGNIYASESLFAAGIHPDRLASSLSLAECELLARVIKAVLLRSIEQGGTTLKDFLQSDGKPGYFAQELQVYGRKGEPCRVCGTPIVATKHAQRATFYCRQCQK

hOGG1, sequence (O15527 whole entry): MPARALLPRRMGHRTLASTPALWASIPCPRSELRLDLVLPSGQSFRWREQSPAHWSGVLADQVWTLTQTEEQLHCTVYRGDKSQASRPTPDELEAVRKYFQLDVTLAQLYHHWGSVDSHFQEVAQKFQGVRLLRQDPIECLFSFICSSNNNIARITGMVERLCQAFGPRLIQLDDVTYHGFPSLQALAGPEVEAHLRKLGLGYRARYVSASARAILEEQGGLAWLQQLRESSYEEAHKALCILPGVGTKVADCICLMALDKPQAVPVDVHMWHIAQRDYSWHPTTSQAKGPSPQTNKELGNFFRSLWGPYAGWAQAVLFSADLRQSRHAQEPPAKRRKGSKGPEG

SMILES: NNC(=O)c1sc2cccc(Cl)c2c1Cl [Inh#1, O8]
- IC50 [1]: 2.5 ± 0.5 µM

SMILES: O=c1[nH]c2[nH]c(=S)[nH]c(=O)c2[nH]1 [Inh#4, Mercapto-6,8-purinediol]
- IC50 [1]: 11.9 ± 0.4 µM
- IC50 [2]: 70.3 ± 0.7 µM
